Laboratory results: PubChem BioAssay (NCI)
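Protocol summary: plate cells (96-well), add compound at 5 concentrations, incubate 48 h, interpolate endpoints linearly. TGI denotes the concentration required for complete inhibition of growth.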

How the values were obtained:
Experiment in all cases: NCI tumour cell line growth inhibition, 48 h
HOP-18 NSCLC = tested on: HOP-18 NSCLC
KM12 colon = tested on: KM12 colon
LXFL 529 NSCLC = tested on: LXFL 529 NSCLC
NCI-H522 lung = tested on: NCI-H522 lung
SF-539 CNS = tested on: SF-539 CNS
SNB-19 CNS = tested on: SNB-19 CNS
U251 CNS = tested on: U251 CNS
DMS 114 small cell lung = tested on: DMS 114 small cell lung
DMS 273 small cell lung = tested on: DMS 273 small cell lung
KM20L2 colon = tested on: KM20L2 colon
M14 melanoma = tested on: M14 melanoma
RXF 393 renal = tested on: RXF 393 renal
XF 498 CNS = tested on: XF 498 CNS
BT-549 breast = tested on: BT-549 breast
CAKI-1 renal = tested on: CAKI-1 renal
DU-145 prostate = tested on: DU-145 prostate
MDA-MB-231 breast = tested on: MDA-MB-231 breast
MDA-MB-435 = tested on: MDA-MB-435
OVCAR-4 ovarian = tested on: OVCAR-4 ovarian
PC-3 prostate = tested on: PC-3 prostate

Row | Structure (SMILES) | TGI (HOP-18 NSCLC) [µM] | TGI (KM12 colon) [µM] | TGI (LXFL 529 NSCLC) [µM] | TGI (NCI-H522 lung) [µM] | TGI (SF-539 CNS) [µM] | TGI (SNB-19 CNS) [µM] | TGI (U251 CNS) [µM] | TGI (DMS 114 small cell lung) [µM] | TGI (DMS 273 small cell lung) [µM] | TGI (KM20L2 colon) [µM] | TGI (M14 melanoma) [µM] | TGI (RXF 393 renal) [µM] | TGI (XF 498 CNS) [µM] | TGI (BT-549 breast) [µM] | TGI (CAKI-1 renal) [µM] | TGI (DU-145 prostate) [µM] | TGI (MDA-MB-231 breast) [µM] | TGI (MDA-MB-435) [µM] | TGI (OVCAR-4 ovarian) [µM] | TGI (PC-3 prostate) [µM]
1 | CC(=O)Nc1ccc(C(=O)NN2C(=O)C(Cl)C2/C=C/c2ccccc2)cc1 (stereo unspecified) | > 100 | > 100 | > 100 | > 100 | > 100 | > 100 | > 100 |  |  |  |  |  |  |  |  |  |  |  |  | 
2 | COc1ccc(Nc2cnc3cc(N)ccc3n2)cc1OC |  | > 100 | > 100 |  |  |  | > 100 | > 100 | > 100 | > 100 | > 100 | > 100 | > 100 |  |  |  |  |  |  | 
3 | Nc1[nH]nc2c1Cc1c(n(Cc3ccc(Cl)cc3)c3ccccc13)C(=O)N2 |  |  |  |  | 29.9 |  |  |  |  |  | 26 | 25.9 |  | 36.6 | 23.5 | 24.4 | 30.6 | 16.5 | 32 | 23.5
